Results reported in PMC7312733, “From Graphite to Laccase Biofunctionalized Few-Layer Graphene: A “One Pot” Approach Using a Chimeric Enzyme” (International Journal of Molecular Sciences, 2020).

Target: T1, POXA1b (Pleurotus ostreatus, UniProt O60199)
T1 construct: wild-type laccase secreted by Pichia pastoris; concentrated and dialysed supernatant, not further purified
T1 sequence (O60199 21-533): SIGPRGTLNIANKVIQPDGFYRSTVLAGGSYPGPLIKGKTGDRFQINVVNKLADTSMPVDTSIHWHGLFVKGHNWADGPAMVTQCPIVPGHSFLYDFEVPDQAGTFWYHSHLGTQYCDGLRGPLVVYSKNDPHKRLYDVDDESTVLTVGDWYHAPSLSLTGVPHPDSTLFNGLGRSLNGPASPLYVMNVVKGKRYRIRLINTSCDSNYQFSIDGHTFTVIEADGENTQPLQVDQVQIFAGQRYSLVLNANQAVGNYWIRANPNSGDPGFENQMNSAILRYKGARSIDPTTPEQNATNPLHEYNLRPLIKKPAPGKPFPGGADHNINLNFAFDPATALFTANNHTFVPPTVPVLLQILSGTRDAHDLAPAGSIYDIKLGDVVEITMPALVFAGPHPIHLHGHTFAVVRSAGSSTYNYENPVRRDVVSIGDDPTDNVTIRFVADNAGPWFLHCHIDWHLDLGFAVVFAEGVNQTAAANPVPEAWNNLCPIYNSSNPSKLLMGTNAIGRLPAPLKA
Assay: spectrophotometric oxidation assay at […] nm
Format: biochemical
Conditions: 2 mM ABTS, 0.1 M sodium citrate pH 3.0, room temperature

CCn1c(=NN=c2sc3cc(S(=O)(=O)O)ccc3n2CC)sc2cc(S(=O)(=O)O)ccc21 [ABTS, 2,2′-azino-bis(3-ethylbenzothiazoline-6-sulphonic acid)]
spectrophotometric oxidation assay at 420 nm: The laccase activity was assayed at room temperature, monitoring the oxidation of ABTS
